Experimental data: PubChem BioAssay (NCI)
Values joined by “and” are separate entries in the source; they are usually repeats but may differ in a detail not shown here. Equal entries are not always repeated.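 These data come from cells grown in 96-well plates and exposed to compound for 48 hours at five concentrations. TGI: total growth inhibition.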

Test system: IGROV1 ovarian
Assay: NCI anticancer screen, dose series, 48 h

Structure (SMILES) | TGI
CCOC(=O)NC(Nc1ccc([N+](=O)[O-])cc1)(C(F)(F)F)C(F)(F)F | > 100 µM
C[N+]12CCCCC1C(CN1C(=O)Cc3c4ccccc4c(c4ccccc34)CC1=O)CCC2 (stereo not given) | > 100 µM
CC(=O)O[C@H]1CC[C@@]2(C)C(=CC[C@H]3[C@@H]4C[C@H](N5CCOCC5)[C@H](OC(C)=O)[C@@]4(C)CC[C@@H]32)C1 | > 100 µM
CCC1(C)C=Cc2c(cc(O)c3c(=O)c4ccccc4n(C)c23)O1 (stereo not given) | > 10 µM
O=[N+]([O-])/C(C(Cl)=C(Cl)Cl)=C(\N1CCCCC1)n1cncn1 | 24 µM
O=C1c2cccnc2-c2nccc3c2c1nc1cc(Br)ccc13 | 0.31 µM
NC(CCC(=O)NC(CSCC1C(=O)Nc2ccccc21)C(=O)NCC(=O)O)C(=O)O (stereo not given) | 13 µM
NNC(=O)CSc1nc2ccccc2c(=O)n1N | > 100 µM
CC(=O)NC1c2ccccc2C(C)(C)C12CCC1(CC2)OCCO1 (stereo not given) | > 100 µM
CC1=NNC(=O)C1C(CC(=O)c1c[nH]c2ccccc12)C(=O)O (stereo not given) | > 100 µM
CN1COCc2c1ccc1cc3ccc4c(c3nc21)COCN4S(C)(=O)=O | > 100 µM
Oc1cccc(-c2nc3cc(F)ccc3s2)c1 | 33.1 µM
CC(C(O)Cc1ccccc1)N(C)N=Nc1ccc([N+](=O)[O-])cc1 (stereo not given) | 43.4 µM
CC(C)NC(=O)OCCN=c1c2ccccc2ccc2ccccc12 | > 100 µM
CN(C)CCOC1(Cc2ccc(F)cc2)CCC(C(C)(C)C)CC1 (stereo not given) | 23.8 µM and 24.3 µM
On1c(-c2ccccc2)nc2ccccc2c1=S | > 100 µM
CSc1cnc2ccccc2c1SC1CN(Cc2ccccc2)c2ccccc2C1=O (stereo not given) | > 100 µM
C=CC[C@]12C=C(OC)[C@@H](O)[C@](OC)(C(c3cc(OC)c4c(c3)OCO4)[C@H]1C)[C@H]2OC(C)=O (stereo not given in full) | > 100 µM
Cn1c2ccccc2c(=NNc2cccc(C(=O)O)c2)c2ccccc21 | 66.2 µM

Test system: SN12C renal
Assay: NCI anticancer screen, dose series, 48 h

Structure (SMILES) | TGI
CCOC(=O)NC(Nc1ccc([N+](=O)[O-])cc1)(C(F)(F)F)C(F)(F)F | > 100 µM
C[N+]12CCCCC1C(CN1C(=O)Cc3c4ccccc4c(c4ccccc34)CC1=O)CCC2 (stereo not given) | > 100 µM
CC(=O)O[C@H]1CC[C@@]2(C)C(=CC[C@H]3[C@@H]4C[C@H](N5CCOCC5)[C@H](OC(C)=O)[C@@]4(C)CC[C@@H]32)C1 | > 100 µM
CCC1(C)C=Cc2c(cc(O)c3c(=O)c4ccccc4n(C)c23)O1 (stereo not given) | > 10 µM
O=[N+]([O-])/C(C(Cl)=C(Cl)Cl)=C(\N1CCCCC1)n1cncn1 | 33.4 µM
O=C1c2cccnc2-c2nccc3c2c1nc1cc(Br)ccc13 | 0.412 µM
NC(CCC(=O)NC(CSCC1C(=O)Nc2ccccc21)C(=O)NCC(=O)O)C(=O)O (stereo not given) | 13.9 µM
NNC(=O)CSc1nc2ccccc2c(=O)n1N | > 100 µM
CC(=O)NC1c2ccccc2C(C)(C)C12CCC1(CC2)OCCO1 (stereo not given) | > 10 µM
CC1=NNC(=O)C1C(CC(=O)c1c[nH]c2ccccc12)C(=O)O (stereo not given) | > 100 µM
CN1COCc2c1ccc1cc3ccc4c(c3nc21)COCN4S(C)(=O)=O | > 100 µM
Oc1cccc(-c2nc3cc(F)ccc3s2)c1 | 82.7 µM
CC(C(O)Cc1ccccc1)N(C)N=Nc1ccc([N+](=O)[O-])cc1 (stereo not given) | 44.9 µM
CC(C)NC(=O)OCCN=c1c2ccccc2ccc2ccccc12 | > 100 µM
CN(C)CCOC1(Cc2ccc(F)cc2)CCC(C(C)(C)C)CC1 (stereo not given) | 25 µM and 27.5 µM
On1c(-c2ccccc2)nc2ccccc2c1=S | > 100 µM
CSc1cnc2ccccc2c1SC1CN(Cc2ccccc2)c2ccccc2C1=O (stereo not given) | > 100 µM
C=CC[C@]12C=C(OC)[C@@H](O)[C@](OC)(C(c3cc(OC)c4c(c3)OCO4)[C@H]1C)[C@H]2OC(C)=O (stereo not given in full) | > 100 µM
Cn1c2ccccc2c(=NNc2cccc(C(=O)O)c2)c2ccccc21 | 30.3 µM

Test system: SF-268 CNS
Assay: NCI anticancer screen, dose series, 48 h

Structure (SMILES) | TGI [µM]
CCOC(=O)NC(Nc1ccc([N+](=O)[O-])cc1)(C(F)(F)F)C(F)(F)F | > 100
C[N+]12CCCCC1C(CN1C(=O)Cc3c4ccccc4c(c4ccccc34)CC1=O)CCC2 (stereo not given) | > 100
CC(=O)O[C@H]1CC[C@@]2(C)C(=CC[C@H]3[C@@H]4C[C@H](N5CCOCC5)[C@H](OC(C)=O)[C@@]4(C)CC[C@@H]32)C1 | > 100
CCC1(C)C=Cc2c(cc(O)c3c(=O)c4ccccc4n(C)c23)O1 (stereo not given) | > 10
O=[N+]([O-])/C(C(Cl)=C(Cl)Cl)=C(\N1CCCCC1)n1cncn1 | 26.9
O=C1c2cccnc2-c2nccc3c2c1nc1cc(Br)ccc13 | 0.555
NC(CCC(=O)NC(CSCC1C(=O)Nc2ccccc21)C(=O)NCC(=O)O)C(=O)O (stereo not given) | 15.5
